2 compounds from US20050054620A1, “Paricalcitol as a chemotherapeutic agent” (priority 2003, published 2005) can be followed below.

One data set concerns NCI-H929 cells. As to the kind of experiment: Cell cycle analysis by flow cytometry. It counts as cell-based, human. The settings on record: for G0/G1 arrest / accumulation / sub-G1 population: 0.01 μM each, 3 days. How it is done: For cell cycle analysis, cells were exposed to 10^−7M 1,25(OH)2D3, 10^−7M paricalcitol or vehicle control for either 3 or 4 days. Total cells, both in suspension and adherent, were collected, washed, suspended in cold PBS. Then cells were fixed in 75% chilled methanol and stained with propidium iodine. Cell cycle status was analyzed on a Becton Dickinson Flow Cytometer.
HCI-H929 cells were cultured with either paricalcitol (10^−7M) or 1,25(OH)2D3 (10^−7M) for 72 hrs, harvested and stained with propidium iodine (PI). Control cells were treated with vehicle alone.
(Flow cytometry measures light scatter and fluorescence of single cells or particles in a stream.)

The test system of another data set is NB-4 cells. The data set is described as follows: CD14 expression by flow cytometry. The format is cell-based, human. As to conditions: paricalcitol 0.1 μM, arsenic trioxide 0.6 μM, 3 days.
The nature of data set [1]: Serum calcium in tumor-bearing nude mice. The settings on record: 100 ng/mouse i.p. 3 days a week, after 4 weeks; control 9.5±0.4, not significantly different (p=0.17). It counts as in vivo. The method, then: For the mouse studies, BNX nu/nu nude mice at 8 weeks of age were purchased from Harlan Sprangue Dawley, Inc. (Indianapolis, Ind.) and their care was in accord with the guidelines of Cedars-Sinai Research Institute. They were maintained in pathogen-free conditions with irradiated chow. A total of 1×10^6 HT-29 cells in 0.1 ml of Matrigel (Collaborative Biological Products, Bedford, Mass.) were injected s.c. into bilateral flanks of each mouse, resulting in the formation of two tumors per mouse. The mice were blindly randomized to the experimental and control groups. Treatment was started on the day after the injection of […] cells and continued for 6 weeks. The control mice (five) received diluant only and the experimental mice (five) received paricalcitol [100 ng/day, intraperitoneally, 3 days per week (M,W,F)]. Tumor sizes were measured every week and calculated by the formula: A (length)×B (width)×C (height)×0.5236. After 4 weeks, blood was collected for serum calcium. All mice were euthanized at the end of the study, and the tumors were fixed in 10% neutral buffered formalin and embedded in paraffin for histological analysis. The data were analyzed by Student's t test.
To measure the serum calcium levels in mice, Sigma Diagnostics calcium reagent (Sigma, MO) containing o-cresolphthalein, which complexes with calcium to form a purple colored complex, was used.

In another data set the test system is 24-hydroxylase mRNA. As to the kind of experiment: RT-PCR of 24-hydroxylase mRNA in HT-29 cells. It counts as cell-based, human. The settings on record: 10^−7M.
Data set [2] concerns HL-60 cells. As to the kind of experiment: CD14 expression by flow cytometry. It counts as cell-based, human. As to conditions: for cell surface CD14 expression: paricalcitol 0.01 μM, arsenic trioxide 0.8 μM, 3 days. How it is done: In order to measure cell surface CD14 antigen on HL-60 cells, promyelocytic leukemia cell line, HL-60, was treated with either 1,25(OH)2D3 or paricalcitol (10^−7M) for 4 days and examined for CD14 expression by flow cytometry using CD14 antibody (DAKO, Carpinteria, Calif.), as described previously (Hisatake et al., supra, 2001). Murine IgG1 antibody (DAKO) was used as a control.
Measurement of cell surface CD14 antigen on HL-60 cells by flow cytometry using CD14 antibody (DAKO, Carpinteria, Calif.), was determined as described previously (Hisatake et al. Blood 97:2427-2433 (2001)). Murine IgG1 antibody (DAKO) was used as a control.

A further data set deals with HT-29 colon cancer cells. The data set is described as follows: MTT assay. As to conditions: 10^−7M, 96 hrs. It counts as cell-based, human. The method, then:
(§1) HT-29, SW837, SW480 and HCT116 colon cancer cells were treated for 96 hrs with either paricalcitol (10^−7M) 1,25(OH)2D3 (10^−7M) or diluant (control). Growth (% of control) was measured by MTT assay. Results represent the mean±SD of three independent experiments with triplicate dishes. […] were incubated in culture medium for 96 hr in 96 well-plates and […] of MTT solution was added.

For data set [3], the system named is HCT116 colon cancer cells. The data set is described as follows: MTT assay. The format is cell-based, human. The settings on record: 10^−7M, 96 hrs. How it is done: as §1
(Tetrazolium assays rely on reduction of a dye to a coloured formazan, in cell work by metabolically active cells.)

The next data set concerns SW837 colon cancer cells. As to the kind of experiment: MTT assay. The settings on record: 10^−7M, 96 hrs. It counts as cell-based, human. The method, then: as §1
Another data set has as its system SW480 colon cancer cells. As to the kind of experiment: MTT assay. The settings on record: 10^−7M, 96 hrs. It counts as cell-based, human. The method, then: as §1
The next data set concerns the target T1, 24-hydroxylase (Homo sapiens, UniProt Q07973).
T1 sequence (Q07973 36-514): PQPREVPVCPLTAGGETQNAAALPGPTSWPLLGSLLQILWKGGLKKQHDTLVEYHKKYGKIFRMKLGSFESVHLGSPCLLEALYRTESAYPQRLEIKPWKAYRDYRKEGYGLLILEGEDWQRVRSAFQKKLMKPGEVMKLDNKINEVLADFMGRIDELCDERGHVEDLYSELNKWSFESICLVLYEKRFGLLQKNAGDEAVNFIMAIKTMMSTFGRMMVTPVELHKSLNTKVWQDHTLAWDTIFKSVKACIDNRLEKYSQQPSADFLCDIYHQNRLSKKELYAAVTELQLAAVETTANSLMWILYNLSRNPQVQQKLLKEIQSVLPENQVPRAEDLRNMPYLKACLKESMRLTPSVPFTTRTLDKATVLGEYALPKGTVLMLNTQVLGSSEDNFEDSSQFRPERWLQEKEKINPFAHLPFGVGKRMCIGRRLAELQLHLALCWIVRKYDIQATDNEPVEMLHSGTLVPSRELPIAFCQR
The data set is described as follows: 24-hydroxylase activity by level of 24.25(OH)2D3 in NB-4 cells. The format is cell-based. Also noted: endogenous in cells. The settings on record: paricalcitol 0.1 μM, arsenic trioxide 0.6 μM, 3 days. How it is done:
HL-60 (A) and NB-4 (B) myeloid leukemia cell lines were treated with paricalcitol (0.01 μM for HL-60, 0.1 μM for NB-4) and/or arsenic trioxide (0.8 μM for HL-60, 0.6 μM for NB-4) for 3 days. Control cells were treated with vehicle alone. The levels of 24.25(OH)2D3 were measured by HPLC analysis.
The possibility that the arsenic trioxide inactivates the mitchondrial enzyme, 24-hydroxylase leading to an activation of the response of the cells to vitamin D was tested. The activity of 24-hydroxylase was examined by measuring its metabolite, 24.25(OH)2D3 by TLC analysis in leukemia cells. HL-60 and NB-4 myeloid leukemia cell lines were treated with paricalcitol (0.01 μM for HL-60, 0.1 μM for NB-4) and/or arsenic trioxide (0.8 μM for HL-60, 0.6 μM for NB-4) for 3 days. Control cells were treated with vehicle alone. Then the levels of 24.25(OH)2D3 were measured by TLC analysis. Paricalcitol alone increased the levels of 24.25(OH)2D3 in HL-60 and NB-4, while arsenic trioxide alone decreased its level compared to control cells (FIG. 11). […] The decrease of the levels of 24-hydroxylase by arsenic trioxide may explain the enhanced activity of paricalcitol by arsenic trioxide in leukemia cells.

Data set [4] deals with HL-60 cells. The data set is described as follows: NBT reduction (monocytic differentiation). The format is cell-based, human. The settings on record: paricalcitol 0.01 μM, arsenic trioxide 0.8 μM, 3 days.

Procedure for 24-hydroxylase mRNA: In FIG. 6B, HT-29 colon cancer cells were treated with paricalcitol (10^−7M) for 0, 6, 12 or 24 hrs and RNA was harvested. Expression of 24 hydroxylase mRNA was analysed by RT-PCR. The amounts of mRNA were normalized by comparison to 18S RNA. […] For the PCR analysis, RNA extraction and reverse transcription were done by TRIzole (Invitrogen, Carlsbad, Calif.) and reverse transcriptase (Promega, Madison, Wis.). A twenty-microliter volume of cDNA was prepared from 1 μg of RNA. cDNAs were amplified by PCR with specific primers for 24-hydroxylase and 18S. The cycle number was 25 for 18S and 32 for 24-hydroxylase. PCR product was separated on a 2% agarose gel, stained with ethidium bromide, and photographed.

On to `C[C@H](/C=C/[C@H](C)C(C)(C)O)[C@H]1CC[C@H]2/C(=C/C=C3C[C@@H](O)C[C@H](O)C3)CCC[C@]12C` [paricalcitol, 19-nor-1,25, (OH)2D3], for which the “G0/G1 arrest / accumulation” value in the data set with NCI-H929 cells is reported as “induced G0/G1 arrest”. In the data set on NCI-H929 cells, the sub-G1 population entry is on record as “increased”. The “increase of accumulation in G1/G0 phase” value in the data set with NCI-H929 cells (10^−7M, 72 hrs) is given as 7%. Besides, the “increase in apoptotic sub-G1 population” value in the data set on NCI-H929 cells (10^−7M, 72 hrs, diluant control 4% sub-G1) is 21%. Also, the CD14 expression result in the data set with NB-4 cells was “did not induced CD14 expression”. Further, the serum calcium levels in data set [1] was determined as 10.2 ± 0.7 mg/dL. In the data set on 24-hydroxylase mRNA, the “time of exposure within which 24-hydroxylase mRNA expression was induced” value is not above 6 h. Besides, the “cells induced to express CD14” value in the data set on HL-60 cells [2] (10^−7M, 96 hrs) is 65%. Further, the “cell surface CD14 expression” value in the data set on HL-60 cells [2] was “increased cell surface CD14”. Besides, the “growth by MTT assay” value with HT-29 colon cancer cells is given as “sensitive”; in data set [3] it was “either only slightly sensitive or resistant”; in the data set with SW837 colon cancer cells, “sensitive”; in the data set on SW480 colon cancer cells, “either only slightly sensitive or resistant”. Further, the “levels of 24.25(OH)2D3” value at 24-hydroxylase was “increased”. In addition, in the data set on HL-60 cells [4], the “monocytic differentiation by NBT reduction” value is recorded as “increased”.
In the case of arsenic trioxide, in the data set on NCI-H929 cells, the “G0/G1 arrest / accumulation” value was “induced G0/G1 arrest” and the sub-G1 population result is reported as “increased”. The CD14 expression entry with NB-4 cells is listed as “did not induced CD14 expression”. Besides, the “cell surface CD14 expression” value with HL-60 cells [2] is “did not”. For the same compound, the “levels of 24.25(OH)2D3” value at 24-hydroxylase is on record as “decreased”. Moreover, the “monocytic differentiation by NBT reduction” value in the data set on HL-60 cells [4] is listed as “little effect on differentiation”.
